Laboratory results reported in patent publication US8865737B2, “Antitumor agent for undifferentiated gastric cancer” (Eisai R&D Management Co., Ltd., priority 2006, dated 2014).

Columns and labels:
[1] = biological target: T1, FGFR2 recombinant protein (Homo sapiens, UniProt P21802); assay: FGFR2 kinase inhibitory activity (cell free kinase assay, Upstate); type: biochemical; settings: poly(Glu, Tyr)4:1 substrate, [γ-33P]-ATP, 40 minutes at room temperature
T1 construct: purchased Upstate (UK)
Experimental: Specifically, the FGFR2 kinase inhibitory activity was measured as follows.
MgATP was added to 25 μL of solution containing 5-10 mU of FGFR2 recombinant protein, 8 mM MOPS (pH 7.0), 0.2 mM EDTA, 2.5 mM MnCl2, 0.1 mg/ml poly (Glu, Tyr)4:1, 10 mM Mg Acetate, 500 cpm/mol [γ-^33P]-ATP and a test substance to initiate reaction.
Following 40 minutes of reaction at room temperature, 5 μL of 3% phosphoric acid was added to terminate the reaction. 10 μL of the reaction solution was spotted on Filtermat A, which was washed with 75 mM phosphoric acid for five times and once with ethanol and then dried. The radioactivity of the spot was determined (measured).
In this regard, a value obtained when substrate Poly(Glu, Tyr)4:1 was contained but not the FGFR2 recombinant protein was assumed 0% value while a value obtained when the FGFR2 recombinant protein and substrate Poly(Glu, Tyr)4:1 were contained but not the test substance was assumed 100% value.
The kinase activity in the presence of the test substance at each concentration was calculated as percentage of the value obtained by subtracting the 0% value from each radioactivity value to the value obtained by subtracting the 0% value from the 100% value.

FGFR2 [2] = assay: FGFR2 phosphorylation in human undifferentiated gastric cancer cell lines (immunoprecipitation, western blotting); type: cell-based; settings: 1 μM, one hour; KATO-III, SNU-16 and HSC-39 cells (FIG. 1)
Experimental: Human undifferentiated gastric cancer cell lines (KATO-III (purchased from ATCC)), SNU-16 (purchased from ATCC) and HSC-39 (purchased from Immuno-Biological Laboratories)) were suspended in RPMI1640 media (purchased from Sigma) containing 10% FBS (fetal bovine serum). KATO-III, SNU-16 and HSC-39 are cells showing FGFR2 gene amplification (Laboratory Investigation, 78, 1143-1153, 1998), and are also known as scirrhous gastric cancer cell lines. Each 10 mL of the cell suspensions (5×10^5 cells/mL) was placed into a 75 cm^2 cell culture flask (purchased from FALCON) and cultured in a 5% CO2 incubator (37° C.) overnight. In the case of KATO-III, the medium was replaced by an RMPI1640 medium containing 1% FBS. To this, 10 mL of the test substance 4-(3-chloro-4-(cyclopropylaminocarbonyl)aminophenoxy)-7-methoxy-6-quinolinecarboxamide (methanesulfonate) diluted in RPMI1640 containing 1% or 10% FBS was added and cultured in a 5% CO2 incubator (37° C.) for an hour. The culture solution was collected, each flask was washed with 5 mL PBS, and the mixture of the collected culture and the washing solution was centrifuged at 1,000 rpm, at 4° C. for 5 minutes. […]

HSC-39 [3] = assay: Cell proliferation, Cell Counting Kit-8; type: cell-based; settings: Homo sapiens, 72 h; HSC-39, 10% FBS, three days; read-out: inhibition of cell proliferation IC50
Experimental: (§1) Human undifferentiated gastric cancer cell lines (KATO-III (purchased from ATCC)), SNU-16 (purchased from ATCC) and HSC-39 (purchased from Immuno-Biological Laboratories)) were suspended in RPMI1640 media (purchased from Sigma) containing 10% FBS except that KATO-III was suspended in an RMPI1640 medium containing 1% FBS. The cell suspensions (KATO-III: 6×10^4 cells/mL; SNU-16 and HSC-39: 2×10^4 cells/mL) were placed into a 96-well cell culture plate (purchased from NUNC) at 0.1 mL/well and cultured in a 5% CO2 incubator (37° C.) overnight. Following cultivation, 0.1 mL of the test substance 4-(3-chloro-4-(cyclopropylaminocarbonyl)aminophenoxy)-7-methoxy-6-quinolinecarboxamide (methanesulfonate) diluted in an RPMI1640 medium containing 1% or 10% FBS was added to each well and further cultured in a 5% CO2 incubator (37° C.) for three days. Following cultivation, 20 μL of Cell Counting Kit-8 (purchased from DOJINDO) was added to each well and allowed to develop color in a 5% CO2 incubator (37° C.) to determine (measure) the absorbance of each well by using a plate reader MTP-500 (Corona Electric) at a measurement wavelength of 450 nm and a reference wavelength of 660 nm.

KATO-III [4] = assay: Cell proliferation, Cell Counting Kit-8; type: cell-based; settings: Homo sapiens, 72 h, 1% FBS, three days, read-out: inhibition of cell proliferation IC50
Experimental: as §1

SNU-16 [5] = assay: Cell proliferation, Cell Counting Kit-8; type: cell-based; settings: Homo sapiens, 72 h; SNU-16, 10% FBS, three days; read-out: inhibition of cell proliferation IC50
Experimental: as §1

HSC-39 [6] = assay: Apoptosis of human undifferentiated gastric cancer cell line (PARP / caspase-3 fragmentation, western blotting); type: cell-based; settings: 1 μM, HSC-39, one or three days (FIG. 2)
Experimental: Human undifferentiated gastric cancer cell line HSC-39 (purchased from Immuno-Biological Laboratories) was suspended in an RPMI1640 medium (purchased from Sigma) containing 10% FBS. Five mL of the cell suspension (4×10^5 cells/mL) was placed into a […] (purchased from FALCON). To this, 5 mL of the test substance 4-(3-chloro-4-(cyclopropylaminocarbonyl)aminophenoxy)-7-methoxy-6-quinolinecarboxamide (methanesulfonate) diluted in an RPMI1640 medium containing 10% FBS was added and cultured in a 5% CO2 incubator (37° C.) for one or three days. The culture solution was collected and each flask was washed with 5 mL PBS. The mixture of the collected culture solution and the washing solution was centrifuged at 1,000 rpm, at 4° C. for 5 minutes. For precipitation, 100 μL of a lysis buffer (50 mM Hepes (pH 7.4), 150 mM NaCl, 10% (v/v) glycerol, 1% Triton X-100, 1.5 mM MgCl2, 1 mM EDTA (pH 8.0), 100 mM NaF, 1 mM PMSF, 10 μg/mL Aprotinin, 50 μg/mL Leupeptin, 1 μg/mL Pepstatin A, 1 mM Na3VO4) was added to solubilize the cells. This solution was collected and centrifugated at 15,000 rpm, at 4° C. for 15 minutes. An SDS buffer was added to the supernatant to prepare a 25 μg/15 μL solution and the resultant was treated at 94° C. for 5 minutes to solubilize the protein, which was prepared as a cell sample solution. […]

HSC-39 [7] = assay: Anti-tumor effect, subcutaneous transplanted (xenograft) model; type: in vivo, nude mice; settings: HSC-39 xenograft, oral 1, 3, 10, 30 or 100 mg/kg once a day, four-weeks schedule (FIG. 3)
Experimental: (§2) Human undifferentiated gastric cancer cell lines (KATO-III (purchased from ATCC)), SNU-16 (purchased from ATCC) and HSC-39 (purchased from Immuno-Biological Laboratories) were cultured with RPMI1640 (containing 10% FBS) in a 5% CO2 incubator at 37° C. The cells were collected with trypsin-EDTA according to a conventional method. The cells were suspended in a phosphate buffer to prepare a 5×10^7 cells/mL suspension. Each 0.1 mL of the resulting cell suspensions was subcutaneously transplanted into the side of body of nude mice (purchased from Charles River). Following transplantation, the test substance 4-(3-chloro-4-(cyclopropylaminocarbonyl)aminophenoxy)-7-methoxy-6-quinolinecarboxamide (methanesulfonate) dissolved in distilled water for injection (purchased from Otsuka Pharmaceutical) was orally administered at 1, 3, 10, 30 or 100 mg/kg once a day on a four-weeks schedule (except for KATO-III, 30 or 100 mg/kg, once a day, two-weeks schedule) once the tumor volume became (reached) about 100-200 mm^3. The major and minor axes of tumors were measured with Digimatic caliper (Mitsutoyo), and tumor volumes were calculated according to the following formulae. Tumor Volume (TV)=Major axis of tumor (mm)×(Minor axis of tumor)^2 (mm^2)/2

KATO-III [8] = assay: as above; type: in vivo, nude mice; settings: oral 30 or 100 mg/kg once a day, two-weeks schedule (FIG. 3)
Experimental: as §2

SNU-16 [9] = assay: as above; type: in vivo, nude mice; settings: SNU-16 xenograft, oral 1, 3, 10, 30 or 100 mg/kg once a day, four-weeks schedule (FIG. 3)
Experimental: as §2

FGFR2 [10] = assay: FGFR2 phosphorylation in tumor tissues of subcutaneous transplanted (xenograft) models; type: in vivo, nude mice; settings: SNU-16 and HSC-39 xenografts, oral 10, 30 or 100 mg/kg, tumors removed two hours after administration (FIG. 4)
Experimental: Human undifferentiated gastric cancer cell lines (SNU-16 (purchased from ATCC) and HSC-39 (purchased from Immuno-Biological Laboratories) were cultured with RPMI1640 (containing 10% FBS) in a 5% CO2 incubator (37° C.) and cells were collected with trypsin-EDTA according to a conventional method. The cells were suspended in a phosphate buffer to prepare a 5×10^7 cells/mL suspension. Each 0.1 mL of the resulting cell suspensions was subcutaneously transplanted into the side of body of nude mice (purchased from Charles River).
Following transplantation, the test substance 4-(3-chloro-4-(cyclopropylaminocarbonyl)aminophenoxy)-7-methoxy-6-quinolinecarboxamide (methanesulfonate) dissolved in distilled water for injection (purchased from Otsuka Pharmaceutical) was orally administered at 10, 30 or 100 mg/kg once the tumor volume became (reached) about 400-800 mm^3. Tumors were removed two hours after the administration, to which a lysis buffer (50 mM Hepes (pH 7.4), 150 mM NaCl, 10% (v/v) glycerol, 1% TritonX-100, 1.5 mM MgCl2, 1 mM EDTA (pH 8.0), 100 mM NaF, 1 mM PMSF, 10 μg/mL Aprotinin, 50 μg/mL Leupeptin, 1 μg/mL Pepstatin A, 1 mM Na3VO4) and 25 mM β-glycerophosphate and phosphatase inhibitor cocktail II (SIGMA)) was added for homogenization. The resultant was centrifugated at 15,000 rpm, at 4° C. for 15 minutes. 1000 μg/500 μL of The supernatant was prepared as a tumor extract. […]

T1 sequence (P21802 22-821): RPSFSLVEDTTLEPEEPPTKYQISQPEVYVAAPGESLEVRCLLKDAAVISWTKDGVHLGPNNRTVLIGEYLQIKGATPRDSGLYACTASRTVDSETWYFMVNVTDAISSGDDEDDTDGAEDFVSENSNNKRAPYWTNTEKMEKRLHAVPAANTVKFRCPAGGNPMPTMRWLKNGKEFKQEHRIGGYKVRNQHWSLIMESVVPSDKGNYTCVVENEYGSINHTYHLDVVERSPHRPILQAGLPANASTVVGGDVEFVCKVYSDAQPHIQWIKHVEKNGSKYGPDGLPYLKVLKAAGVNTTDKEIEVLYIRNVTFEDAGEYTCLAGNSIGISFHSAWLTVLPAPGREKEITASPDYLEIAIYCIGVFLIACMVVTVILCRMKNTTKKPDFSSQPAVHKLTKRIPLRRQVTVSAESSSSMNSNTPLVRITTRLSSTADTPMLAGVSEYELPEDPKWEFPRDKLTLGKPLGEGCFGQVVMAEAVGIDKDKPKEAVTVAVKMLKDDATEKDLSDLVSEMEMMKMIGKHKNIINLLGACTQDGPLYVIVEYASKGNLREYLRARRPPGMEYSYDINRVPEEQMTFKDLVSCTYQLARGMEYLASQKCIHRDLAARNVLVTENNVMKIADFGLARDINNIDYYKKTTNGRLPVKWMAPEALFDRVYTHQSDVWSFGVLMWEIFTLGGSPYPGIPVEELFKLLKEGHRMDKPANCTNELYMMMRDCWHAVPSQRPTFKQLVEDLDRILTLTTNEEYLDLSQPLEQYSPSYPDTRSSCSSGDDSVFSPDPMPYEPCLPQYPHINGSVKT

In the case of `COc1cc2nccc(Oc3ccc(NC(=O)NC4CC4)c(Cl)c3)c2cc1C(N)=O` [4-(3-chloro-4-(cyclopropylaminocarbonyl)aminophenoxy)-7-methoxy-6-quinolinecarboxamide], the IC50 [1] is reported as < 10 nM, the “phosphorylation of FGFR2” value (FGFR2 [2]) is reported as “almost completely inhibited” and the IC50 (HSC-39 [3]) is reported as 157 nM. For the same molecule, the IC50 (KATO-III [4]) was 141 nM, the IC50 (SNU-16 [5]) was 251 nM and the cleaved-PARP (HSC-39 [6]) was “clearly detected”. The cleaved-caspase-3 (HSC-39 [6]) was “clearly detected”, the “anti-tumor effect (tumor volume)” value (HSC-39 [7]) was “dose-dependent anti-tumor effect” and the “anti-tumor effect (tumor volume)” value (KATO-III [8]) was “dose-dependent anti-tumor effect”. For the same molecule, the “anti-tumor effect (tumor volume)” value (SNU-16 [9]) was “dose-dependent anti-tumor effect” and the “phosphorylation of FGFR2 in tumor” value (FGFR2 [10]) was “inhibit phosphorylation of FGFR2”.
